Drawing on patent publication US9221832B2, “Heterocyclic amide derivatives as P2X7 receptor antagonists” (ACTELION PHARMACEUTICALS LTD., priority 2011, dated 2015), this text covers IC50 for 33 compounds.

The pIC50 is the negative decadic logarithm of the IC50, by convention in mol/L.

pIC50: −log10 of the molar value.

Sequence of human recombinant P2X7 receptor (Q99572 whole entry): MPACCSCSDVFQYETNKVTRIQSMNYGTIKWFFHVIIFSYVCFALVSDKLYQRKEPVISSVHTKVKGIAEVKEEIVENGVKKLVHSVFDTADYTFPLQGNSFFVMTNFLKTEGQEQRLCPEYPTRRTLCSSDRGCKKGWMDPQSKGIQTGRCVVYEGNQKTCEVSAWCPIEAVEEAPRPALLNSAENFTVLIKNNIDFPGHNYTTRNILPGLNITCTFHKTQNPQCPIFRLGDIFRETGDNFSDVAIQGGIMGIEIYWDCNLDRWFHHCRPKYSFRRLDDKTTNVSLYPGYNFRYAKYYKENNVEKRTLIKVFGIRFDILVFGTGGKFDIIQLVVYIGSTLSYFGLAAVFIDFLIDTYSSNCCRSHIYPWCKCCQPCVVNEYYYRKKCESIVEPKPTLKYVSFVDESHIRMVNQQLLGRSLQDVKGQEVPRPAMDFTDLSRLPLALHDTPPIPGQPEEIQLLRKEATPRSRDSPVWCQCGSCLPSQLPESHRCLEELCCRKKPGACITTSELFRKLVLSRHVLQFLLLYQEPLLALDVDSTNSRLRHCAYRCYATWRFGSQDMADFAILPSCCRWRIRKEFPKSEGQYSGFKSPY

In this assay the target is human recombinant P2X7 receptor (Homo sapiens (Human), UniProt Q99572). Briefly: YO-PRO assay: P2X7 receptor antagonistic activity. In kind it is cell-based. Conditions: HEK cells expressing human P2X7. As to the method:
The P2X7 receptor antagonistic activity of the compounds of formula (I) is determined in accordance with the following experimental method.
Cell Line Generation and YO-PRO Assay
Cell line generation was performed in general according to established molecular cloning protocols. Specifically, RNA was extracted from human whole blood using the Qiagen RNeasy kit (Qiagen, CH) according to the manufacturer's instructions. Subsequently cDNA was made (Superscript II, Invitrogen AG, CH) and the human P2X7 gene (genbank ref. BC011913) was amplified with the following primers: […] and […]. The amplified sequence was subsequently ligated into a pcDNA3.1 (+) NotI, NheI digested plasmid. […] Following a 24 h exposure to DNA, cells were trypsinized and re-seeded at low density in the presence of 250 μg Geneticin. Geneticin resistant cells were then selected during two consecutive rounds of cloning by serial limiting dilution with visual inspection. Individual clones were screened for P2X7 expression by applying ATP and recording the resultant uptake of YO-PRO1. Specific cell clones were chosen based on RNA and protein expression. HEK cells stably expressing P2X7 were used to screen drugs using the YO-PRO1 assay. Cells were grown to confluency in adherent culture at 37° C. in a humidified 5% CO2 incubator (split 1/5 every 3-4 days with DMEM, 10% FCS, 1% Penicillin/Streptomycin, 250 μg/ml Geneticin). Adherent cells were detached by incubation with Trypsine (1 ml per 165 cm^2 dish) for 2 minutes, then washed off with 10 ml PBS (without Mg^2+ and Ca^2+), and resuspended in DMEM, 10% FCS, 1% Penicillin/Streptomycin, no Geneticin. […] During this time period, four time points were taken. Each time point comprised the average of several measurements made within a few seconds. […] The FLIPR tetra was equipped with Molecular Devices Screen Works system control software to define and run experimental protocols. […] For IC50 measurements the maximum intensity is plotted against the concentration of compound to determine IC50 values.
As for `Cc1cc(CC(=O)NC2CCOc3ncccc32)on1` (racemic) [Example 62, rac-N-(3,4-Dihydro-2H-pyrano[2,3-b]pyridin-4-yl)-2-(3-methyl-isoxazol-5-yl)-acetamide], the pIC50 is 5.68. Under `O=C(Cc1ccc(Oc2ccccc2)cc1)NC1COc2ncccc21` (racemic) [Example 36, rac-N-(2,3-Dihydro-furo[2,3-b]pyridin-3-yl)-2-(4-phenoxy-phenyl)-acetamide] stands 5.83; under `O=C(NC1COc2ncccc21)C1Cc2ccc(Cl)cc2C1` (stereo not drawn) [Example 149, 5-chloro-N-(2,3-dihydrofuro[2,3-b]pyridin-3-yl)-2,3-dihydro-1H-indene-2-carboxamide], 5.33.

With `O=C(Cc1c(C(F)(F)F)ccc(Cl)c1Cl)NC1COc2ncccc21` (racemic) [Example 71, rac-2-(2,3-Dichloro-6-trifluoromethyl-phenyl)-N-(2,3-dihydro-furo[2,3-b]pyridin-3-yl)-acetamide], the pIC50 was 5.49.

On to `O=C(Cc1ccc(Cl)cc1Cl)NC1COc2c1ccnc2C1CC1` (racemic) [Example 104, rac-N-(7-Cyclopropyl-2,3-dihydro-furo[2,3-c]pyridin-3-yl)-2-(2,4-dichloro-phenyl)-acetamide], for which the pIC50 is 7.15. For the compound `COc1ccccc1CC(=O)NC1COc2ncccc21` (racemic) [Example 12, rac-N-(2,3-Dihydro-furo[2,3-b]pyridin-3-yl)-2-(2-methoxy-phenyl)-acetamide], the pIC50 was less than 5.22.

In the case of `[2H]C([2H])([2H])C(C(=O)NC1COc2ncccc21)c1ccc(Cl)cc1Cl` (stereo not drawn) [Example 86, 2-(2,4-Dichloro-phenyl)-2-trideuteromethyl-N-2,3-dihydro-furo[2,3-b]pyridin-3-yl-acetamide], the pIC50 was 7.48. As to `O=C(Cc1ccc(F)cc1C(F)(F)F)NC1CCOc2ncccc21` (racemic) [Example 52, rac-N-(3,4-Dihydro-2H-pyrano[2,3-b]pyridin-4-yl)-2-(4-fluoro-2-trifluoromethyl-phenyl)-acetamide], the pIC50 is 5.73. Consider `Cc1cc(Cl)cc(Cl)c1CC(=O)NC1COc2cnccc21` (racemic) [Example 89, rac-2-(2,4-Dichloro-6-methyl-phenyl)-N-(2,3-dihydro-furo[2,3-c]pyridin-3-yl)-acetamide], for which the pIC50 was 8.49. As to `O=C(Cc1cccc(OC(F)(F)F)c1Cl)NC1COc2ncccc21` (racemic) [Example 108, rac-2-(2-Chloro-3-trifluoromethoxy-phenyl)-N-(2,3-dihydro-furo[2,3-b]pyridin-3-yl)-acetamide], the pIC50 was 7.15. As for `Cc1cc(Cl)cc(Cl)c1CC(=O)NC1COc2nc(Cl)ccc21` (racemic) [Example 144, rac-N-(6-Chloro-2,3-dihydro-furo[2,3-b]pyridin-3-yl)-2-(2,4-dichloro-6-methyl-phenyl)-acetamide], the pIC50 is 7.30. Under `O=C(Cc1ccc(C(F)(F)F)cc1)NC1CCOc2ncccc21` (racemic) [Example 46, rac-N-(3,4-Dihydro-2H-pyrano[2,3-b]pyridin-4-yl)-2-(4-trifluoromethyl-phenyl)-acetamide] stands 5.87; under `O=C(Cc1c(Cl)cc(Cl)cc1CO)NC1COc2ncccc21` (racemic) [Example 103, rac-2-(2,4-Dichloro-6-hydroxymethyl-phenyl)-N-(2,3-dihydro-furo[2,3-b]pyridin-3-yl)-acetamide], 7.80; under `N#Cc1c(F)ccc(CC(=O)NC2COc3ncccc32)c1Cl` (racemic) [Example 107, rac-2-(2-Chloro-3-cyano-4-fluoro-phenyl)-N-(2,3-dihydro-furo[2,3-b]pyridin-3-yl)-acetamide], 7.51. Consider `N#Cc1ccc(CC(=O)NC2CCOc3ncccc32)cc1` (racemic) [Example 45, rac-2-(4-Cyano-phenyl)-N-(3,4-dihydro-2H-pyrano[2,3-b]pyridin-4-yl)-acetamide], for which the pIC50 was less than 5.19. For the compound `O=C(CCCc1ccc(F)cc1)NC1COc2ncccc21` (racemic) [Example 82, rac-N-(2,3-Dihydro-furo[2,3-b]pyridin-3-yl)-4-(4-fluoro-phenyl)-butyramide], the pIC50 was 5.69.

On to `O=C(Cc1c(Cl)ccc(C(F)(F)F)c1Cl)NC1COc2ncccc21` (racemic) [Example 72, rac-2-(2,6-Dichloro-3-trifluoromethyl-phenyl)-N-(2,3-dihydro-furo[2,3-b]pyridin-3-yl)-acetamide], for which the pIC50 is 5.99. In the case of `O=C(NC1COc2ncccc21)C1CCc2cc(Cl)cc(Cl)c21` (stereo not drawn) [Example 130, 5,7-dichloro-N-(2,3-dihydrofuro[2,3-b]pyridin-3-yl)-2,3-dihydro-1H-indene-1-carboxamide] it was 6.86; in that of `O=C(Cc1cccc(C(F)(F)F)c1Cl)NC1COc2nccc(C(F)(F)F)c21` (racemic) [Example 152, rac-2-(2-Chloro-3-trifluoromethyl-phenyl)-N-(4-trifluoromethyl-2,3-dihydro-furo[2,3-b]pyridin-3-yl)-acetamide], 6.06. As for `O=C(Cc1c(F)cc(F)cc1F)NC1COc2ncccc21` (racemic) [Example 22, rac-N-(2,3-Dihydro-furo[2,3-b]pyridin-3-yl)-2-(2,4,6-trifluoro-phenyl)-acetamide], the pIC50 is 6.05. Take `O=C(Cc1cccc(C(F)(F)F)c1Cl)NC1COc2c[n+]([O-])ccc21` (racemic) [Example 148, rac-2-(2-Chloro-3-trifluoromethyl-phenyl)-N-(6-oxy-2,3-dihydro-furo[2,3-c]pyridin-3-yl)-acetamide]: the pIC50 was 6.78.

On to `O=C(Cc1ccc(Cl)c(Cl)c1)NC1COc2ncccc21` (racemic) [Example 21, rac-2-(3,4-Dichloro-phenyl)-N-(2,3-dihydro-furo[2,3-b]pyridin-3-yl)-acetamide], for which the pIC50 was 6.33.

With `O=C(Cc1cccc(C(F)(F)F)c1Cl)NC1COc2ncccc21` (single isomer, unassigned) [Example 73, 2-(2-Chloro-3-trifluoromethyl-phenyl)-N-(2,3-dihydro-furo[2,3-b]pyridin-3-yl)-acetamide], the pIC50 is 8.00. In the case of `Cc1cc(Cl)cc(Cl)c1CC(=O)NC1COc2ncccc21` (single isomer, unassigned) [Example 6, 2-(2,4-Dichloro-6-methyl-phenyl)-N-(2,3-dihydro-furo[2,3-b]pyridin-3-yl)-acetamide] it was 7.80. Under `O=C(Cc1ccc(Cl)cc1C(F)(F)F)NC1COc2ncccc21` (racemic) [Example 35, rac-2-(4-Chloro-2-trifluoromethyl-phenyl)-N-(2,3-dihydro-furo[2,3-b]pyridin-3-yl)-acetamide] stands 6.71; under `O=C(Cc1ccc(F)cc1F)NC1COc2ncccc21` (racemic) [Example 17, rac-2-(2,4-Difluoro-phenyl)-N-(2,3-dihydro-furo[2,3-b]pyridin-3-yl)-acetamide], 6.28; under `CC(C(=O)NC1CCOc2ncccc21)c1ccc(Cl)cc1` (stereo not drawn) [Example 64, 2-(4-Chloro-phenyl)-N-(3,4-dihydro-2H-pyrano[2,3-b]pyridin-4-yl)-propionamide], 5.82. With `O=C(Cc1c(F)ccc(F)c1Cl)NC1COc2ncccc21` (racemic) [Example 78, rac-2-(2-Chloro-3,6-difluoro-phenyl)-N-(2,3-dihydro-furo[2,3-b]pyridin-3-yl)-acetamide], the pIC50 is 6.18. Under `COc1nccc2c1OCC2NC(=O)Cc1ccc(Cl)cc1Cl` (racemic) [Example 105, rac-2-(2,4-Dichloro-phenyl)-N-(7-methoxy-2,3-dihydro-furo[2,3-c]pyridin-3-yl)-acetamide] stands 6.61.

With `N#Cc1cccc(CC(=O)NC2COc3ncccc32)c1C(F)(F)F` (racemic) [Example 113, rac-2-(3-Cyano-2-trifluoromethyl-phenyl)-N-(2,3-dihydro-furo[2,3-b]pyridin-3-yl)-acetamide], the pIC50 is 7.55.

Regarding `N#Cc1cc(Cl)cc(Cl)c1CC(=O)NC1COc2ncccc21` (racemic) [Example 37, rac-2-(2,4-Dichloro-6-cyano-phenyl)-N-(2,3-dihydro-furo[2,3-b]pyridin-3-yl)-acetamide], the pIC50 is 6.49. In the case of `O=C(Cc1c(F)cccc1C(F)(F)F)NC1COc2ncccc21` (racemic) [Example 68, rac-N-(2,3-Dihydro-furo[2,3-b]pyridin-3-yl)-2-(2-fluoro-6-trifluoromethyl-phenyl)-acetamide] it was 5.74; in that of `CCc1cc(Cl)cc(Cl)c1CC(=O)NC1COc2ncccc21` (racemic) [Example 32, rac-2-(2,4-Dichloro-6-ethyl-phenyl)-N-(2,3-dihydro-furo[2,3-b]pyridin-3-yl)-acetamide], 7.64.
